In PubChem BioAssay (NCI):
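Values below derive from 48-hour exposures of cells grown in 96-well plates, with endpoints linearly interpolated between the two concentrations bracketing the appropriate inhibition level. GI50 = concentration required for 50% inhibition of growth. Definition used: TGI = concentration required for complete inhibition of growth.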

Experiments:
Assay in all cases: NCI-60 cell line screen, 48 h
CAKI-1 renal = tested on: CAKI-1 renal
HL-60(TB) leukemia = tested on: HL-60(TB) leukemia
K-562 leukemia = tested on: K-562 leukemia
M14 melanoma = tested on: M14 melanoma
MOLT-4 leukemia = tested on: MOLT-4 leukemia
NCI/ADR-RES ovarian = tested on: NCI/ADR-RES ovarian
RXF 393 renal = tested on: RXF 393 renal
SF-295 CNS = tested on: SF-295 CNS
SW-620 colon = tested on: SW-620 colon
U251 CNS = tested on: U251 CNS

COc1ccc(-n2c(SCc3cc(OC)c(OC)c(OC)c3)nc3ccc(C)cc3c2=O)c(OC)c1
GI50 (CAKI-1 renal): 2.97 µM | TGI (CAKI-1 renal): > 100 µM | GI50 (HL-60(TB) leukemia): 2.14 µM | TGI (HL-60(TB) leukemia): 4.77 µM | GI50 (K-562 leukemia): 2.99 µM | TGI (K-562 leukemia): > 100 µM | GI50 (M14 melanoma): 2.7 µM | TGI (M14 melanoma): 8.55 µM | GI50 (MOLT-4 leukemia): 3.15 µM | TGI (MOLT-4 leukemia): > 100 µM | GI50 (NCI/ADR-RES ovarian): 2.68 µM | TGI (NCI/ADR-RES ovarian): > 100 µM | GI50 (RXF 393 renal): 4 µM | TGI (RXF 393 renal): > 100 µM | GI50 (SF-295 CNS): 3.22 µM | TGI (SF-295 CNS): > 100 µM | GI50 (SW-620 colon): 4.49 µM | TGI (SW-620 colon): > 100 µM | GI50 (U251 CNS): 4.86 µM | TGI (U251 CNS): > 100 µM

CC12CCC3C(CC=C4CC(O)CCC43C)C1C/C(=C\N1CCCC1)C2=O (centres undefined)
GI50 (CAKI-1 renal): 61.2 µM | TGI (CAKI-1 renal): > 100 µM | GI50 (HL-60(TB) leukemia): 75.3 µM | TGI (HL-60(TB) leukemia): > 100 µM | GI50 (K-562 leukemia): 55.8 µM | TGI (K-562 leukemia): > 100 µM | GI50 (M14 melanoma): > 100 µM | TGI (M14 melanoma): > 100 µM | GI50 (MOLT-4 leukemia): > 100 µM | TGI (MOLT-4 leukemia): > 100 µM | GI50 (NCI/ADR-RES ovarian): > 100 µM | TGI (NCI/ADR-RES ovarian): > 100 µM | GI50 (RXF 393 renal): 41.8 µM | TGI (RXF 393 renal): > 100 µM | GI50 (SF-295 CNS): 57.2 µM | TGI (SF-295 CNS): > 100 µM | GI50 (SW-620 colon): > 100 µM | TGI (SW-620 colon): > 100 µM | GI50 (U251 CNS): > 100 µM | TGI (U251 CNS): > 100 µM

O=C(O)c1cc2ccccc2c(O)c1O
TGI (CAKI-1 renal): 33.9 µM | TGI (HL-60(TB) leukemia): > 74.3 µM | TGI (K-562 leukemia): > 58.8 µM | TGI (M14 melanoma): 16.3 µM | TGI (MOLT-4 leukemia): > 66.8 µM | TGI (NCI/ADR-RES ovarian): 41.5 µM | TGI (RXF 393 renal): 31.7 µM | TGI (SF-295 CNS): 29.4 µM | TGI (SW-620 colon): 34.8 µM | TGI (U251 CNS): 31 µM

O=c1cccc(C#CC#C[C@H]2O[C@@H]2CO)o1
GI50 (CAKI-1 renal): 0.189 µM | TGI (CAKI-1 renal): 0.359 µM | GI50 (HL-60(TB) leukemia): 1.47 µM | TGI (HL-60(TB) leukemia): > 100 µM | GI50 (K-562 leukemia): 0.182 µM | TGI (K-562 leukemia): > 100 µM | GI50 (M14 melanoma): 1.23 µM | GI50 (MOLT-4 leukemia): 0.154 µM | TGI (MOLT-4 leukemia): > 100 µM | GI50 (NCI/ADR-RES ovarian): 0.927 µM | TGI (NCI/ADR-RES ovarian): 3.37 µM | GI50 (RXF 393 renal): 0.448 µM | TGI (RXF 393 renal): 1.74 µM | GI50 (SF-295 CNS): 1.7 µM | TGI (SF-295 CNS): 3.77 µM | GI50 (SW-620 colon): 0.238 µM | TGI (SW-620 colon): 0.596 µM | GI50 (U251 CNS): 0.355 µM | TGI (U251 CNS): 0.958 µM

OC1(C(O)(c2ccc(-c3ccccc3)cc2)c2ccc(-c3ccccc3)cc2)CCCCC1
TGI (CAKI-1 renal): > 100 µM | TGI (HL-60(TB) leukemia): > 100 µM | TGI (K-562 leukemia): > 100 µM | TGI (M14 melanoma): > 100 µM | TGI (MOLT-4 leukemia): > 100 µM | TGI (NCI/ADR-RES ovarian): > 100 µM | TGI (RXF 393 renal): > 100 µM | TGI (SF-295 CNS): > 100 µM | TGI (SW-620 colon): > 100 µM | TGI (U251 CNS): > 100 µM

CSc1nc2c(c(=O)[nH]1)N=C1c3ccccc3C(=O)C1C(c1ccc(F)cc1)N2 (centres undefined)
GI50 (CAKI-1 renal): 3.31 µM | TGI (CAKI-1 renal): 35.6 µM | GI50 (HL-60(TB) leukemia): 6.54 µM | TGI (HL-60(TB) leukemia): > 100 µM | GI50 (K-562 leukemia): 4.05 µM | TGI (K-562 leukemia): > 100 µM | GI50 (M14 melanoma): 6.29 µM | TGI (M14 melanoma): > 100 µM | GI50 (MOLT-4 leukemia): 19.5 µM | TGI (MOLT-4 leukemia): > 100 µM | GI50 (NCI/ADR-RES ovarian): 6.42 µM | TGI (NCI/ADR-RES ovarian): 33.1 µM | GI50 (RXF 393 renal): 14.5 µM | TGI (RXF 393 renal): 36.6 µM | GI50 (SF-295 CNS): 3.67 µM | TGI (SF-295 CNS): 34.3 µM | GI50 (SW-620 colon): 4.48 µM | TGI (SW-620 colon): 70.7 µM | GI50 (U251 CNS): 5.43 µM | TGI (U251 CNS): 19.3 µM

N#Cc1c(C(=O)c2ccccc2)cnn1-c1ccccc1
GI50 (CAKI-1 renal): > 25 µM | TGI (CAKI-1 renal): > 25 µM | GI50 (HL-60(TB) leukemia): > 25 µM | TGI (HL-60(TB) leukemia): > 25 µM | GI50 (K-562 leukemia): > 25 µM | TGI (K-562 leukemia): > 25 µM | GI50 (M14 melanoma): > 25 µM | TGI (M14 melanoma): > 25 µM | GI50 (MOLT-4 leukemia): > 25 µM | TGI (MOLT-4 leukemia): > 25 µM | GI50 (NCI/ADR-RES ovarian): > 25 µM | TGI (NCI/ADR-RES ovarian): > 25 µM | GI50 (RXF 393 renal): > 25 µM | TGI (RXF 393 renal): > 25 µM | GI50 (SF-295 CNS): > 25 µM | TGI (SF-295 CNS): > 25 µM | GI50 (SW-620 colon): > 25 µM | TGI (SW-620 colon): > 25 µM | GI50 (U251 CNS): > 25 µM | TGI (U251 CNS): > 25 µM

O=C(/C=C/c1ccc(OCC(=O)N2CCN(c3ccccc3)CC2)cc1)c1ccc(Cl)cc1
TGI (CAKI-1 renal): > 100 µM | TGI (HL-60(TB) leukemia): > 100 µM | TGI (K-562 leukemia): > 100 µM | TGI (M14 melanoma): > 100 µM | TGI (MOLT-4 leukemia): > 100 µM | TGI (NCI/ADR-RES ovarian): > 100 µM | TGI (RXF 393 renal): 55.1 µM | TGI (SF-295 CNS): 54.7 µM | TGI (SW-620 colon): > 100 µM | TGI (U251 CNS): 46 µM

C/C(=N/S(=O)(=O)c1ccc(Cl)c(Cl)c1)OCC(C)(C)C
TGI (CAKI-1 renal): > 100 µM | TGI (HL-60(TB) leukemia): > 100 µM | TGI (K-562 leukemia): > 100 µM | TGI (M14 melanoma): > 100 µM | TGI (MOLT-4 leukemia): > 100 µM | TGI (NCI/ADR-RES ovarian): > 100 µM | TGI (RXF 393 renal): > 100 µM | TGI (SF-295 CNS): > 100 µM | TGI (SW-620 colon): > 100 µM | TGI (U251 CNS): > 100 µM
